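Assay format: 96-well plates, 48-hour exposure. Here, GI50 denotes the concentration required for 50% inhibition of growth.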 Active and inactive are the calls of the source. Cut-off read from the data, not from the text of the source: active = GI50 up to about 1.1 µM and inactive = higher.
What was measured:
Assay in all cases: DTP human tumour cell line panel, 48 h
NCI-H226 = test system: NCI-H226
UACC-257 = test system: UACC-257
MDA-MB-231 = test system: MDA-MB-231
A498 = test system: A498
SW-620 = test system: SW-620
BT-549 = test system: BT-549
SNB-75 = test system: SNB-75
EKVX = test system: EKVX
TK-10 = test system: TK-10
T47D = test system: T47D
Hs-578T = test system: Hs-578T
K562 = test system: K562
HCT-116 = test system: HCT-116
HCT-15 = test system: HCT-15
DU-145 = test system: DU-145
HT-29 = test system: HT-29
SR = test system: SR
COLO 205 = test system: COLO 205
SN12C = test system: SN12C
IGROV-1 = test system: IGROV-1
KM-20L2 = test system: KM-20L2
786-0 = test system: 786-0
SF-539 = test system: SF-539
RXF 393 = test system: RXF 393
A549 = test system: A549
RPMI-8226 = test system: RPMI-8226
OVCAR-3 = test system: OVCAR-3
SK-OV-3 = test system: SK-OV-3
OVCAR-5 = test system: OVCAR-5
PC-3 = test system: PC-3
CAKI-1 = test system: CAKI-1
DMS-273 = test system: DMS-273
LOX IMVI = test system: LOX IMVI
DLD-1 = test system: DLD-1
CCRF-CEM = test system: CCRF-CEM
HL-60 = test system: HL-60
MCF7 = test system: MCF7
HOP-18 = test system: HOP-18
UACC-62 = test system: UACC-62
M14 = test system: M14
MOLT-4 = test system: MOLT-4
NCI-H460 = test system: NCI-H460
HOP-62 = test system: HOP-62
MDA-N = test system: MDA-N
UO-31 = test system: UO-31
M19-MEL = test system: M19-MEL
ACHN = test system: ACHN
MDA-MB-435 = test system: MDA-MB-435
KM12 = test system: KM12
SNB-78 = test system: SNB-78
SK-MEL-28 = test system: SK-MEL-28
SNB-19 = test system: SNB-19
NCI-H23 = test system: NCI-H23
LXFL 529 = test system: LXFL 529
OVCAR-4 = test system: OVCAR-4
HOP-92 = test system: HOP-92
SF-268 = test system: SF-268
OVCAR-8 = test system: OVCAR-8
Malme-3M = test system: Malme-3M
DMS-114 = test system: DMS-114
SK-MEL-5 = test system: SK-MEL-5
U-251 = test system: U-251
HCC 2998 = test system: HCC 2998
SF-295 = test system: SF-295
SK-MEL-2 = test system: SK-MEL-2
NCI-H522 = test system: NCI-H522

## O=C1C=CN(C2OC(CO)C(O)C2O)C(=O)C1 (stereo unspecified)
NCI-H226
  GI50: 423 µM (inactive)
UACC-257
  GI50: 1130 µM (inactive)
MDA-MB-231
  GI50: 363 µM (inactive)
A498
  GI50: 867 µM (inactive)
SW-620
  GI50: 32.5 µM (inactive)
BT-549
  GI50: > 2500 µM (inactive)
SNB-75
  GI50: 838 µM (inactive)
EKVX
  GI50: > 2500 µM (inactive)
TK-10
  GI50: 2210 µM (inactive)
T47D
  GI50: 173 µM (inactive)
Hs-578T
  GI50: 126 µM (inactive)
K562
  GI50: 1.58 µM (inactive)
HCT-116
  GI50: 1.51 µM (inactive)
HCT-15
  GI50: 17.9 µM
DU-145
  GI50: 9.38 µM (inactive)
HT-29
  GI50: 32.3 µM (inactive)
SR
  GI50: 5.42 µM (inactive)
COLO 205
  GI50: 27.1 µM (inactive)
SN12C
  GI50: 10 µM (inactive)
IGROV-1
  GI50: 223 µM (inactive)
KM-20L2
  GI50: 67.3 µM (inactive)
786-0
  GI50: 13.3 µM (inactive)
SF-539
  GI50: 91.6 µM (inactive)
RXF 393
  GI50: 372 µM (inactive)
A549
  GI50: 17.8 µM (inactive)
RPMI-8226
  GI50: 5.47 µM (inactive)
OVCAR-3
  GI50: 692 µM (inactive)
SK-OV-3
  GI50: 1320 µM (inactive)
OVCAR-5
  GI50: 1350 µM (inactive)
PC-3
  GI50: 155 µM (inactive)
CAKI-1
  GI50: 22.3 µM (inactive)
DMS-273
  GI50: 1730 µM (inactive)
LOX IMVI
  GI50: 12 µM (inactive)
DLD-1
  GI50: 24.6 µM (inactive)
CCRF-CEM
  GI50: 6.87 µM (inactive)
HL-60
  GI50: 9.46 µM (inactive)
MCF7
  GI50: 7.76 µM (inactive)
HOP-18
  GI50: 557 µM (inactive)
UACC-62
  GI50: 50.4 µM (inactive)
M14
  GI50: 231 µM (inactive)
MOLT-4
  GI50: 8.34 µM (inactive)
NCI-H460
  GI50: 0.942 µM (active)
HOP-62
  GI50: 36.3 µM (inactive)
MDA-N
  GI50: 62.5 µM (inactive)
UO-31
  GI50: 29.7 µM (inactive)
M19-MEL
  GI50: 35.6 µM (inactive)
ACHN
  GI50: 39.2 µM (inactive)
MDA-MB-435
  GI50: 161 µM (inactive)

## CC(C)c1cccc(C(C)C)c1NC(=O)CCC(=O)NN
KM12
  GI50: > 100 µM (inactive)
NCI-H226
  GI50: > 100 µM (inactive)
UACC-257
  GI50: > 100 µM (inactive)
SNB-78
  GI50: > 100 µM (inactive)
A498
  GI50: > 100 µM (inactive)
SW-620
  GI50: 21.9 µM (inactive)
SK-MEL-28
  GI50: > 100 µM (inactive)
SNB-75
  GI50: > 100 µM (inactive)
EKVX
  GI50: > 100 µM (inactive)
TK-10
  GI50: > 100 µM (inactive)
SNB-19
  GI50: > 100 µM (inactive)
NCI-H23
  GI50: > 100 µM (inactive)
K562
  GI50: 58.6 µM (inactive)
HCT-116
  GI50: 66.4 µM (inactive)
HCT-15
  GI50: 18 µM
LXFL 529
  GI50: > 100 µM (inactive)
HT-29
  GI50: > 100 µM (inactive)
OVCAR-4
  GI50: > 100 µM (inactive)
COLO 205
  GI50: 19.6 µM (inactive)
SN12C
  GI50: > 100 µM (inactive)
IGROV-1
  GI50: > 100 µM (inactive)
KM-20L2
  GI50: > 100 µM (inactive)
786-0
  GI50: > 100 µM (inactive)
SF-539
  GI50: > 100 µM (inactive)
A549
  GI50: > 100 µM (inactive)
RPMI-8226
  GI50: 46.1 µM (inactive)
OVCAR-3
  GI50: > 100 µM (inactive)
SK-OV-3
  GI50: > 100 µM (inactive)
OVCAR-5
  GI50: > 100 µM (inactive)
CAKI-1
  GI50: > 100 µM (inactive)
DMS-273
  GI50: 61.5 µM (inactive)
DLD-1
  GI50: > 100 µM (inactive)
CCRF-CEM
  GI50: > 100 µM (inactive)
HL-60
  GI50: > 100 µM (inactive)
HOP-18
  GI50: > 100 µM (inactive)
UACC-62
  GI50: > 100 µM (inactive)
HOP-92
  GI50: > 100 µM (inactive)
M14
  GI50: > 100 µM (inactive)
SF-268
  GI50: > 100 µM (inactive)
MOLT-4
  GI50: > 100 µM (inactive)
NCI-H460
  GI50: 84.9 µM (inactive)
OVCAR-8
  GI50: > 100 µM (inactive)
HOP-62
  GI50: > 100 µM (inactive)
UO-31
  GI50: > 100 µM (inactive)
Malme-3M
  GI50: > 100 µM (inactive)
DMS-114
  GI50: > 100 µM (inactive)
SK-MEL-5
  GI50: > 100 µM (inactive)
U-251
  GI50: > 100 µM (inactive)
M19-MEL
  GI50: > 100 µM (inactive)
ACHN
  GI50: > 100 µM (inactive)
HCC 2998
  GI50: > 100 µM (inactive)
SF-295
  GI50: > 100 µM (inactive)

## O=C1/C(=C/c2ccccc2)CN(C(=O)Oc2ccccc2)C/C1=C\c1ccccc1
KM12
  GI50: > 100 µM (inactive)
UACC-257
  GI50: > 100 µM (inactive)
SNB-78
  GI50: 20.4 µM (inactive)
A498
  GI50: 57.4 µM (inactive)
SW-620
  GI50: 20.2 µM (inactive)
SK-MEL-28
  GI50: > 100 µM (inactive)
SNB-75
  GI50: 4.91 µM (inactive)
EKVX
  GI50: 62.2 µM (inactive)
TK-10
  GI50: 17 µM (inactive)
SNB-19
  GI50: 13.2 µM (inactive)
NCI-H23
  GI50: 33 µM (inactive)
K562
  GI50: 7.13 µM (inactive)
HCT-116
  GI50: 6.81 µM (inactive)
HCT-15
  GI50: 40.6 µM
LXFL 529
  GI50: 50.6 µM (inactive)
HT-29
  GI50: > 100 µM (inactive)
SR
  GI50: 7.19 µM (inactive)
OVCAR-4
  GI50: 96.2 µM (inactive)
COLO 205
  GI50: > 100 µM (inactive)
SN12C
  GI50: 65.3 µM (inactive)
IGROV-1
  GI50: 21.6 µM (inactive)
KM-20L2
  GI50: > 100 µM (inactive)
786-0
  GI50: 10.5 µM (inactive)
SF-539
  GI50: 5.36 µM (inactive)
RXF 393
  GI50: 11.1 µM (inactive)
A549
  GI50: > 100 µM (inactive)
RPMI-8226
  GI50: 0.221 µM (active)
OVCAR-3
  GI50: 99.5 µM (inactive)
OVCAR-5
  GI50: > 100 µM (inactive)
SK-MEL-2
  GI50: 15.6 µM (inactive)
DMS-273
  GI50: 23.1 µM (inactive)
LOX IMVI
  GI50: 5.01 µM (inactive)
CCRF-CEM
  GI50: 6.44 µM (inactive)
HL-60
  GI50: 1.7 µM (inactive)
HOP-18
  GI50: > 100 µM (inactive)
UACC-62
  GI50: 46.3 µM (inactive)
M14
  GI50: 21.8 µM (inactive)
SF-268
  GI50: 24.5 µM (inactive)
MOLT-4
  GI50: 9.29 µM (inactive)
NCI-H460
  GI50: 52.1 µM (inactive)
OVCAR-8
  GI50: 28.2 µM (inactive)
HOP-62
  GI50: 11.2 µM (inactive)
UO-31
  GI50: 34.3 µM (inactive)
Malme-3M
  GI50: > 100 µM (inactive)
DMS-114
  GI50: 17.4 µM (inactive)
NCI-H522
  GI50: 23.2 µM (inactive)
SK-MEL-5
  GI50: > 100 µM (inactive)
U-251
  GI50: 18.7 µM (inactive)
M19-MEL
  GI50: 65.5 µM (inactive)
ACHN
  GI50: 21.9 µM (inactive)
SF-295
  GI50: 11.2 µM (inactive)

— ChEMBL document CHEMBL1201862, “PubChem BioAssay data set” (2004)
